The values that follow are results of earlier work, collected in patent US20240090499A1, “PRESERVATIVE COMPOSITIONS” (Dermegen Inc., priority 2022, published 2024).

Read-outs that look alike come from different tables or passages of the source.

The subject of the data set is fungi (molds). As to conditions: ingredient on its own.

Take `CCCCCCCC(=O)OCC(O)CO` (stereo not drawn) [glyceryl caprylate]: the “anti-fungal activity as known” value is reported as “weak preservatives against molds”.
Consider polylysine, for which the “anti-fungal activity as known” value was “only weakly anti-fungal”. Under “listed as Polylysine”, the “anti-fungal activity as known” value is reported as “weak preservative against fungal microorganisms such as molds”.
